Among the data in patent US8648081B2 (Eli Lilly and Company, priority 2011, dated 2014) are mortality values, retold here.

Where two headings read alike, the source gives them in different places. Where only a bound is given, the exact number is not on record here.

In the assay the test system is Lone star tick larvae (Amblyomma americanum). Kind of assay: In Vitro Larval Immersion Microassay (LIM). Conditions: read-out: % Efficacy (percent larval mortality). The protocol: In Vitro Larval Immersion Microassay (LIM)
The larval immersion microassay may be conducted as described in White, et al., J. Med. Entomol. […] Briefly, experimental test articles are formulated in dimethylsulfoxide (DMSO) to prepare a stock solution at a concentration of 10 mM. […] Approximately 30-50 Lone star tick larvae (Amblyomma americanum) are submerged into each well containing experimental test articles. After a 30 minute immersion period, larvae are removed with a wide-bore pipette tip in 0.05 ml of fluid, dispensed into a commercial paper tissue biopsy bag which is sealed at the top with a plastic dialysis clip, inverted and allowed to air dry for 60 minutes. Bags containing larvae are then incubated at approximately 27 degrees Celsius and >90% relative humidity. After 24 hours, bags are opened, live and dead larvae are counted and percent larval mortality is calculated as follows: % Efficacy=(# dead larvae)/(# total larvae)×100.

In the case of `O=C(NC1CCOCC1)c1sc(C2=NOC(c3cc(Cl)c(Cl)c(Cl)c3)(C(F)(F)F)C2)c2c1CCCC2` (centres unmarked) [Example 77, N-(tetrahydro-2H-pyran-4-yl)-3-(5-(3,4,5-trichlorophenyl)-5-(trifluoromethyl)-4,5-dihydroisoxazol-3-yl)-4,5,6,7-tetrahydrobenzo[c] thiophene-1-carboxamide], the mortality at 300 µM is no less than 80%.

Take `O=C(NC1CCN(C2CC2)C1=O)c1sc(C2=NOC(c3cc(Cl)c(Cl)c(Cl)c3)(C(F)(F)F)C2)c2c1CCCC2` (centres unmarked) [Example 78, N-(1-cyclopropyl-2-oxopyrrolidin-3-yl)-3-(5-(3,4,5-trichloro-phenyl)-5-(trifluoro-methyl)-4,5-dihydro-isoxazol-3-yl)-4,5,6,7-tetrahydrobenzo[c] thiophene-1-carboxamide]: the mortality at 300 µM is no less than 80%. Same read-out and setting: the value for `O=C(NC1CS(=O)(=O)C1)c1sc(C2=NOC(c3cc(Cl)c(F)c(Cl)c3)(C(F)(F)F)C2)c2c1CCCC2` (centres unmarked) [Example 79, 3-[5-(3,5-Dichloro-4-fluoro-phenyl)-5-trifluoromethyl-4,5-dihydro-isoxazol-3-yl]-4,5,6,7-tetrahydro-benzo[c]thiophene-1-carboxylic acid (1,1-dioxo-thietan-3-yl)-amide] was no less than 80%; that for `O=C(NC1CCS(=O)(=O)CC1)c1sc(C2=NOC(c3cc(Cl)c(F)c(Cl)c3)(C(F)(F)F)C2)c2c1CCCC2` (centres unmarked) [Example 80, 3-[5-(3,5-Dichloro-4-fluoro-phenyl)-5-trifluoromethyl-4,5-dihydro-isoxazol-3-yl]-4,5,6,7-tetrahydro-benzo[c] thiophene-1-carboxylic acid (1,1-dioxo-hexahydro-thiopyran-4-yl)-amide] was no less than 80%. `O=C1CCC(NC(=O)c2sc(C3=NOC(c4cc(Cl)c(F)c(Cl)c4)(C(F)(F)F)C3)c3c2CCCC3)CC1` (centres unmarked) [Example 81, 3-(5-(3,5-dichloro-4-fluorophenyl)-5-(trifluoromethyl)-4,5-dihydroisoxazol-3-yl)-N-(4-oxocyclohexyl)-4,5,6,7-tetrahydrobenzo [c]thiophene-1-carboxamide]: the mortality at 300 µM was no less than 80%.

Consider `O=C(NC1CCN(CC(F)(F)F)C1=O)c1sc(C2=NOC(c3cc(Cl)c(F)c(Cl)c3)(C(F)(F)F)C2)c2c1CCCC2` (centres unmarked) [Example 82], for which the mortality at 300 µM is no less than 80%.

Consider `O=C(NC1CCOCC1)c1sc(C2=NOC(c3cc(Cl)c(F)c(Cl)c3)(C(F)(F)F)C2)c2c1CCCC2` (centres unmarked) [Example 83, 3-(5-(3,5-dichloro-4-fluorophenyl)-5-(trifluoromethyl)-4,5-dihydro-isoxazol-3-yl)-N-(tetrahydro-2H-pyran-4-yl)-4,5,6,7-tetrahydro-benzo[c]thiophene-1-carboxamide], for which the mortality at 300 µM is no less than 80%. Regarding `O=C(NC1CCN(C2CC2)C1=O)c1sc(C2=NOC(c3cc(Cl)c(F)c(Cl)c3)(C(F)(F)F)C2)c2c1CCCC2` (centres unmarked) [Example 84, N-(1-cyclopropyl-2-oxopyrrolidin-3-yl)-3-(5-(3,5-dichloro-4-fluorophenyl)-5-(trifluoromethyl)-4,5-dihydroisoxazol-3-yl)-4,5,6,7-tetra-hydrobenzo[c] thiophene-1-carboxamide], the mortality at 300 µM was no less than 80%. On the same count and under the same terms, for `O=C1CCC(NC(=O)c2sc(C3=NOC(c4cc(Cl)cc(Cl)c4)(C(F)(F)F)C3)c3c2CCC3)CC1` (centres unmarked) [Example 85, 3-(5-(3,5-dichloro-phenyl)-5-(trifluoro-methyl)-4,5-dihydro-isoxazol-3-yl)-N-(4-oxocyclohexyl)-5,6-dihydro-4H-cyclopenta[c] thiophene-1-carboxamide] the value was no less than 80%; for `O=C(NC1CCN(CC(F)(F)F)C1=O)c1sc(C2=NOC(c3cc(Cl)cc(Cl)c3)(C(F)(F)F)C2)c2c1CCC2` (centres unmarked) [Example 86, 3-(5-(3,5-dichloro-phenyl)-5-(trifluoro-methyl)-4,5-dihydro-isoxazol-3-yl)-N-(2-oxo-1-(2,2,2-trifluoroethyl)pyrrolidin-3-yl)-5,6-dihydro-4H-cyclopenta[c] thiophene-1-carboxamide], no less than 80%; for `O=C(N[C@@H]1CCNC1=O)c1sc(C2=NO[C@@](c3cc(Cl)cc(Cl)c3)(C(F)(F)F)C2)c2c1CCCC2` [Example 87b, 3-((S)-5-(3,5-dichlorophenyl)-5-(trifluoromethyl)-4,5-dihydroisoxazol-3-yl)-N—((R)-2-oxopyrrolidin-3-yl)-4,5,6,7-tetrahydrobenzo[c]thiophene-1-carboxamide], no less than 80%. For `N#CCNC(=O)CNC(=O)c1sc(C2=NOC(c3cc(Cl)cc(Cl)c3)(C(F)(F)F)C2)c2c1CCCC2` (centres unmarked) [Example 94, N-(2-(cyanomethylamino)-2-oxoethyl)-3-(5-(3,5-dichlorophenyl)-5-(trifluoromethyl)-4,5-dihydroisoxazol-3-yl)-4,5,6,7-tetrahydrobenzo[c]thiophene-1-carboxamide], the mortality at 300 µM was no less than 80%. Still for that read-out and setting: for `C#CCNC(=O)CNC(=O)c1sc(C2=NOC(c3cc(Cl)cc(Cl)c3)(C(F)(F)F)C2)c2c1CCCC2` (centres unmarked) [Example 95, 3-(5-(3,5-dichlorophenyl)-5-(trifluoromethyl)-4,5-dihydroisoxazol-3-yl)-N-(2-oxo-2-(prop-2-ynylamino)ethyl)-4,5,6,7-tetrahydrobenzo [c]thiophene-1-carboxamide] the value was no less than 80%.

As for `N#CCNC(=O)CNC(=O)c1sc(C2=NOC(c3sc(Cl)c(Cl)c3Cl)(C(F)(F)F)C2)c2c1CCCC2` (centres unmarked) [Example 96, N-(2-(cyanomethylamino)-2-oxoethyl)-3-(5-(3,4,5-trichlorothiophen-2-yl)-5-(trifluoromethyl)-4,5-dihydroisoxazol-3-yl)-4,5,6,7-tetrahydro-benzo[c]thiophene-1-carboxamide], the mortality at 300 µM (tested at 300 micromolar, 30 minute immersion, mortality counted after 24 hours) was no less than 80%. Consider `FC(F)(F)C1(c2cc(Cl)cc(Cl)c2)CC(c2cc3ccncc3s2)=NO1` (centres unmarked) [Example 230, 2-[5-(3,5-Dichloro-phenyl)-5-tri-fluoromethyl-4,5-dihydro-isoxazol-3-yl]-thieno[2,3-c] pyridine], for which the mortality at 300 µM was no less than 80%. Turning to `FC(F)(F)C1(c2cc(Cl)cc(Cl)c2)CC(c2cc3cc(Br)cnc3s2)=NO1` (centres unmarked) [Example 231, 5-Bromo-2-[5-(3,5-dichloro-phenyl)-5-trifluoromethyl-4,5-dihydro-isoxazol-3-yl]-thieno[2,3-b]pyridine], the mortality at 300 µM is no less than 80%. On to `FC(F)(F)C1(c2cc(Cl)cc(Cl)c2)CC(c2cc3cccnc3s2)=NO1` (centres unmarked) [Example 232, 2-[5-(3,5-Dichloro-phenyl)-5-tri-fluoromethyl-4,5-dihydro-isoxazol-3-yl]-thieno[2,3-b] pyridine], for which the mortality at 300 µM is no less than 80%. As to `FC(F)(F)C1(c2cc(Cl)cc(Cl)c2)CC(c2cc3ccccc3s2)=NO1` (centres unmarked) [Example 233, 3-(benzo[b]thio-phen-2-yl)-5-(3,5-dichlorophenyl)-5-(trifluoromethyl)-4,5-dihydroisoxazole], the mortality at 300 µM is no less than 80%. Same read-out and setting: for `Cc1ccc2sc(C3=NOC(c4cc(Cl)cc(Cl)c4)(C(F)(F)F)C3)cc2c1` (centres unmarked) [Example 236, 5-(3,5-dichloro-phenyl)-3-(5-methyl-benzo[b]thiophen-2-yl)-5-(trifluoro-methyl)-4,5-dihydro-isoxazole] the value was no less than 80%; for `FC(F)(F)C1(c2cc(Cl)cc(Cl)c2)CC(c2cc3cc(Cl)ccc3s2)=NO1` (centres unmarked) [Example 237, 3-(5-chlorobenzo [b]thiophen-2-yl)-5-(3,5-dichloro-phenyl)-5-(trifluoro-methyl)-4,5-dihydroisoxazole], no less than 80%.
